Data published in patent US9630977B2, “Cephalosporin derivatives and pharmaceutical compositions thereof” (Legochem Biosciences, Inc., priority 2011, dated 2017).
≈ marks a conversion by molar mass, not a printed value.

Each compound was assayed on E. cloacae β19 (assay: In vitro antibacterial activity test (broth microdilution)). Conditions: Enterobacter cloacae, read-out: MIC90.
Format: cell-based
Procedure, shortened: (§1)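 Compounds were dissolved in DMSO at 10,240 ug/mL stock, diluted two-fold in DMSO and then twenty-fold in sterile water. Final test concentrations spanned 0.0626 to 128 ug/mL with 2.5% (V/V) DMSO, and MIC90 was read by CLSI broth microdilution.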

SMILES	MIC90 [µg/mL]
CC(C)(O/N=C(\C(=O)N[C@@H]1C(=O)N2C(C(=O)[O-])=C(/C=C/C[n+]3cnc(N)c(NC(=O)CCNC(=O)c4cc(=O)c(O)c[nH]4)c3)CSC12)c1csc(N)n1)C(=O)O (stereo partly shown) [Compound 13]	8 (≈ 9.85 µM)

The compounds below were run on A. calcoaceticus ATCC15473 in the same assay as above. Conditions: Acinetobacter calcoaceticus; A. calcoaceticus ATCC15473; read-out: MIC90.
Format: cell-based
Procedure, shortened: as §1

SMILES	MIC90 [µg/mL]
CC(C)(O/N=C(\C(=O)N[C@@H]1C(=O)N2C(C(=O)[O-])=C(/C=C/C[n+]3cnc(N)c(NC(=O)CCNC(=O)c4cc(=O)c(O)c[nH]4)c3)CSC12)c1csc(N)n1)C(=O)O (stereo partly shown) [Compound 13]	2 (≈ 2.46 µM)

Each compound was assayed on A. baumannii 49 in the same assay as above. Conditions: Acinetobacter baumannii; A. baumannii 49; read-out: MIC90.
Format: cell-based
Procedure, shortened: as §1

SMILES	MIC90 [µg/mL]
CC(C)(O/N=C(\C(=O)N[C@@H]1C(=O)N2C(C(=O)[O-])=C(/C=C/C[n+]3cnc(N)c(NC(=O)CCNC(=O)c4cc(=O)c(O)c[nH]4)c3)CSC12)c1csc(N)n1)C(=O)O (stereo partly shown) [Compound 13]	> 128

The compounds below were run on K. pneumoniae β10 in the same assay as above. Conditions: Klebsiella pneumoniae; K. pneumoniae β10; read-out: MIC90.
Format: cell-based
Procedure, shortened: as §1

SMILES	MIC90 [µg/mL]
CC(C)(O/N=C(\C(=O)N[C@@H]1C(=O)N2C(C(=O)[O-])=C(/C=C/C[n+]3cnc(N)c(NC(=O)CCNC(=O)c4cc(=O)c(O)c[nH]4)c3)CSC12)c1csc(N)n1)C(=O)O (stereo partly shown) [Compound 13]	1 (≈ 1.23 µM)

The compounds below were run on A. baumannii 46 in the same assay as above. Conditions: Acinetobacter baumannii; A. baumannii 46; read-out: MIC90.
Format: cell-based
Procedure, shortened: as §1

SMILES	MIC90 [µg/mL]
CC(C)(O/N=C(\C(=O)N[C@@H]1C(=O)N2C(C(=O)[O-])=C(/C=C/C[n+]3cnc(N)c(NC(=O)CCNC(=O)c4cc(=O)c(O)c[nH]4)c3)CSC12)c1csc(N)n1)C(=O)O (stereo partly shown) [Compound 13]	8 (≈ 9.85 µM)

Each compound was assayed on M. catarrhalis 2524 in the same assay as above. Conditions: Moraxella catarrhalis; M. catarrhalis 2524; read-out: MIC90.
Format: cell-based
Procedure, shortened: as §1

SMILES	MIC90 [µg/mL]
CC(C)(O/N=C(\C(=O)N[C@@H]1C(=O)N2C(C(=O)[O-])=C(/C=C/C[n+]3cnc(N)c(NC(=O)CCNC(=O)c4cc(=O)c(O)c[nH]4)c3)CSC12)c1csc(N)n1)C(=O)O (stereo partly shown) [Compound 13]	2 (≈ 2.46 µM)

Each compound was assayed on K. pneumoniae β14 in the same assay as above. Conditions: Klebsiella pneumoniae, read-out: MIC90.
Format: cell-based
Procedure, shortened: as §1

SMILES	MIC90 [µg/mL]
CC(C)(O/N=C(\C(=O)N[C@@H]1C(=O)N2C(C(=O)[O-])=C(/C=C/C[n+]3cnc(N)c(NC(=O)CCNC(=O)c4cc(=O)c(O)c[nH]4)c3)CSC12)c1csc(N)n1)C(=O)O (stereo partly shown) [Compound 13]	8 (≈ 9.85 µM)

What follows are compounds tested on P. aeruginosa 1912E in the same assay as above. Conditions: Pseudomonas aeruginosa, 1912E, read-out: MIC90.
Format: cell-based
Procedure, shortened: as §1

SMILES	MIC90 [µg/mL]
CC(C)(O/N=C(\C(=O)N[C@@H]1C(=O)N2C(C(=O)[O-])=C(/C=C/C[n+]3cnc(N)c(NC(=O)CCNC(=O)c4cc(=O)c(O)c[nH]4)c3)CSC12)c1csc(N)n1)C(=O)O (stereo partly shown) [Compound 13]	2 (≈ 2.46 µM)

These compounds were tested on K. pneumoniae β9 in the same assay as above. Conditions: Klebsiella pneumoniae, K. pneumoniae β9; read-out: MIC90.
Format: cell-based
Procedure, shortened: as §1

SMILES	MIC90 [µg/mL]
CC(C)(O/N=C(\C(=O)N[C@@H]1C(=O)N2C(C(=O)[O-])=C(/C=C/C[n+]3cnc(N)c(NC(=O)CCNC(=O)c4cc(=O)c(O)c[nH]4)c3)CSC12)c1csc(N)n1)C(=O)O (stereo partly shown) [Compound 13]	1 (≈ 1.23 µM)

Each compound was assayed on K. pneumoniae β11 in the same assay as above. Conditions: Klebsiella pneumoniae; K. pneumoniae β11; read-out: MIC90.
Format: cell-based
Procedure, shortened: as §1

SMILES	MIC90 [µg/mL]
CC(C)(O/N=C(\C(=O)N[C@@H]1C(=O)N2C(C(=O)[O-])=C(/C=C/C[n+]3cnc(N)c(NC(=O)CCNC(=O)c4cc(=O)c(O)c[nH]4)c3)CSC12)c1csc(N)n1)C(=O)O (stereo partly shown) [Compound 13]	64 (≈ 78.8 µM)

Each compound was assayed on K. pneumoniae β13 in the same assay as above. Conditions: Klebsiella pneumoniae, K. pneumoniae β13; read-out: MIC90.
Format: cell-based
Procedure, shortened: as §1

SMILES	MIC90 [µg/mL]
CC(C)(O/N=C(\C(=O)N[C@@H]1C(=O)N2C(C(=O)[O-])=C(/C=C/C[n+]3cnc(N)c(NC(=O)CCNC(=O)c4cc(=O)c(O)c[nH]4)c3)CSC12)c1csc(N)n1)C(=O)O (stereo partly shown) [Compound 13]	1 (≈ 1.23 µM)

The compounds below were run on E. coli β4 in the same assay as above. Conditions: Escherichia coli, read-out: MIC90.
Format: cell-based
Procedure, shortened: as §1

SMILES	MIC90 [µg/mL]
CC(C)(O/N=C(\C(=O)N[C@@H]1C(=O)N2C(C(=O)[O-])=C(/C=C/C[n+]3cnc(N)c(NC(=O)CCNC(=O)c4cc(=O)c(O)c[nH]4)c3)CSC12)c1csc(N)n1)C(=O)O (stereo partly shown) [Compound 13]	2 (≈ 2.46 µM)

These compounds were tested on P. aeruginosa 6065Y in the same assay as above. Conditions: Pseudomonas aeruginosa, read-out: MIC90.
Format: cell-based
Procedure, shortened: as §1

SMILES	MIC90 [µg/mL]
CC(C)(O/N=C(\C(=O)N[C@@H]1C(=O)N2C(C(=O)[O-])=C(/C=C/C[n+]3cnc(N)c(NC(=O)CCNC(=O)c4cc(=O)c(O)c[nH]4)c3)CSC12)c1csc(N)n1)C(=O)O (stereo partly shown) [Compound 13]	8 (≈ 9.85 µM)

These compounds were tested on P. aeruginosa 37 in the same assay as above. Conditions: Pseudomonas aeruginosa, 37, P. aeruginosa 37; read-out: MIC90.
Format: cell-based
Procedure, shortened: as §1

SMILES	MIC90 [µg/mL]
CC(C)(O/N=C(\C(=O)N[C@@H]1C(=O)N2C(C(=O)[O-])=C(/C=C/C[n+]3cnc(N)c(NC(=O)CCNC(=O)c4cc(=O)c(O)c[nH]4)c3)CSC12)c1csc(N)n1)C(=O)O (stereo partly shown) [Compound 13]	8 (≈ 9.85 µM)

These compounds were tested on P. aeruginosa 43 in the same assay as above. Conditions: Pseudomonas aeruginosa; P. aeruginosa 43; read-out: MIC90.
Format: cell-based
Procedure, shortened: as §1

SMILES	MIC90 [µg/mL]
CC(C)(O/N=C(\C(=O)N[C@@H]1C(=O)N2C(C(=O)[O-])=C(/C=C/C[n+]3cnc(N)c(NC(=O)CCNC(=O)c4cc(=O)c(O)c[nH]4)c3)CSC12)c1csc(N)n1)C(=O)O (stereo partly shown) [Compound 13]	4 (≈ 4.93 µM)

The compounds below were run on A. baumannii 52 in the same assay as above. Conditions: Acinetobacter baumannii; A. baumannii 52; read-out: MIC90.
Format: cell-based
Procedure, shortened: as §1

SMILES	MIC90 [µg/mL]
CC(C)(O/N=C(\C(=O)N[C@@H]1C(=O)N2C(C(=O)[O-])=C(/C=C/C[n+]3cnc(N)c(NC(=O)CCNC(=O)c4cc(=O)c(O)c[nH]4)c3)CSC12)c1csc(N)n1)C(=O)O (stereo partly shown) [Compound 13]	128 (≈ 158 µM)

Each compound was assayed on E. coli AG100 in the same assay as above. Conditions: Escherichia coli, AG100, E. coli AG100; read-out: MIC90.
Format: cell-based
Procedure, shortened: as §1

SMILES	MIC90 [µg/mL]
CC(C)(O/N=C(\C(=O)N[C@@H]1C(=O)N2C(C(=O)[O-])=C(/C=C/C[n+]3cnc(N)c(NC(=O)CCNC(=O)c4cc(=O)c(O)c[nH]4)c3)CSC12)c1csc(N)n1)C(=O)O (stereo partly shown) [Compound 13]	1 (≈ 1.23 µM)

The compounds below were run on K. pneumoniae 2011E in the same assay as above. Conditions: Klebsiella pneumoniae, 2011E, K. pneumoniae 2011E; read-out: MIC90.
Format: cell-based
Procedure, shortened: as §1

SMILES	MIC90 [µg/mL]
CC(C)(O/N=C(\C(=O)N[C@@H]1C(=O)N2C(C(=O)[O-])=C(/C=C/C[n+]3cnc(N)c(NC(=O)CCNC(=O)c4cc(=O)c(O)c[nH]4)c3)CSC12)c1csc(N)n1)C(=O)O (stereo partly shown) [Compound 13]	2 (≈ 2.46 µM)

What follows are compounds tested on P. aeruginosa 40 in the same assay as above. Conditions: Pseudomonas aeruginosa, 40, P. aeruginosa 40; read-out: MIC90.
Format: cell-based
Procedure, shortened: as §1

SMILES	MIC90 [µg/mL]
CC(C)(O/N=C(\C(=O)N[C@@H]1C(=O)N2C(C(=O)[O-])=C(/C=C/C[n+]3cnc(N)c(NC(=O)CCNC(=O)c4cc(=O)c(O)c[nH]4)c3)CSC12)c1csc(N)n1)C(=O)O (stereo partly shown) [Compound 13]	2 (≈ 2.46 µM)
